Earlier results, collected in patent US9878046B2, “Adverse side-effects associated with administration of an anti-hyaluronan agent and methods for ameliorating or preventing the side-effects” (Halozyme, Inc., priority 2010, dated 2018).

Experiments:
B16 melanoma model = settings: oral administration at 600 mg/kg/d; cited from earlier work
[1] = glucocorticoid, route IV or PO as listed; cited from earlier work

SMILES	reduction of metastases (B16 melanoma model) [%]	Equivalent Potency [1] [mg]
Cc1cc(=O)oc2cc(O)ccc12 [4-MU, 4-Methylumbelliferone]	64	–
C[C@]12CCC(=O)C=C1CC[C@@H]1[C@@H]2[C@@H](O)C[C@@]2(C)[C@H]1CC[C@]2(O)C(=O)CO [Hydrocortisone]	–	20
C[C@H]1C[C@@H]2[C@H]([C@@H](O)C[C@@]3(C)[C@H]2CC[C@]3(O)C(=O)COC(=O)CCC(=O)O)[C@@]2(C)C=CC(=O)C=C12 [Methylprednisolone sodium succinate]	–	4
C[C@]12C=CC(=O)C=C1CC[C@@H]1[C@@H]2[C@@H](O)C[C@@]2(C)[C@H]1CC[C@]2(O)C(=O)CO [Prednisolone]	–	5
